Results: patent publication US7449447B2, “Peptidomimetic NS3-serine protease inhibitors of hepatitis C virus” (priority 2003, dated 2008)

Molecular target: T1, HCV NS3/NS4a serine protease (Hepatitis C virus genotype 1b, UniProt P26663)
T1 construct: amino terminus of the NS3 protease domain (amino acids 3-181) with a tetrapeptide linker; made in house; host or cells: E. coli
Assay: Spectrophotometric assay for HCV protease inhibitory activity (chromogenic ester substrates)
Assay type: biochemical, hepatitis C virus (strain 1b)
Settings: single chain NS4A21-32-GSGS-NS3 3-181 protease, 30° C., pH 6.5
Procedure: Spectrophotometric Assay: Spectrophotometric assays for the HCV serine protease were performed on the inventive compounds by following the procedure described by R. Zhang et al., Analytical Biochemistry, 270 (1999) 268-275, the disclosure of which is incorporated herein by reference. The assay based on the proteolysis of chromogenic ester substrates is suitable for the continuous monitoring of HCV NS3 protease activity.
HCV NS3 protease (strain 1b) and its NS4A cofactor were constructed as a recombinant single chain protein. The NS4A cofactor domain (amino acid residues 21-32) was fused in frame to the amino terminus of the NS3 protease domain (amino acids 3-181) with a tetrapeptide linker. This NS4A 21-32-GSGS-NS33-181 construct was then expressed in E. coli and purified to >90% homogeneity. Kinetic parameters were determined and found to be the same as that of the full length NS31-631/NS4A1-54 protein complex produced in the baculovirus system (D. L. Sali et al, Biochemistry, 37 (1998) 3392-340). The details of the cloning, expression, purification and kinetic analysis of the of the single chain recombinant protease have been previously described (S. S. Taremi, et al. Protein Science. 7 (1998) 2143-2149.
Protein concentrations were determined by the Biorad dye method using recombinant HCV protease standards previously quantified by amino acid analysis. Prior to assay initiation, the enzyme storage buffer (50 mM sodium phosphate pH 8.0, 300 mM NaCl, 10% glycerol, 0.05% lauryl maltoside and 10 mM DTT) was exchanged for the assay buffer (25 mM MOPS pH 6.5, 300 mM NaCl, 10% glycerol, 0.05% lauryl maltoside, 5 μM EDTA and 5 μM DTT) utilizing a Biorad Bio-Spin P-6 prepacked column.
Protease Assay: HCV protease assays were performed at 30° C. using a 200 μl reaction mix in a 96-well microtiter plate. Assay buffer conditions (25 mM MOPS pH 6.5, 300 mM NaCl, 10% glycerol, 0.05% lauryl maltoside, 5 μM EDTA and 5 μM DTT) were optimized for the NS3/NS4A heterodimer (D. L. Sali et al, ibid.)). Typically, 100 μl mixtures of buffer, substrate and inhibitor were placed in wells and allowed to preincubate at 30° C. for approximately 3 minutes. One hundred μls of pre-warmed protease (30° C.) in assay buffer, was then used to initiate the reaction to produce a final concentration of 1.3 nM HCV). The Substrate cleavage by the protease was monitored over 60 minutes by measuring the release of the phenylazophenol (PAP) product at an absorbance of 370 nm with a continuous read every 30 seconds using a SpectraMax Plus microtiter plate reader (Molecular Devices, Sunnyvale, Calif.). Background hydrolysis of the substrate was subtracted. Inhibitors were tested over a range of concentrations (final DMSO concentration 4%)
Evaluation of Inhibitors The inhibition constants (Ki) for the competitive inhibitors were determined experimentally at fixed concentrations of enzyme and substrate by plotting vo/vi vs. inhibitor concentration ([I]o) according to the rearranged Michaelis-Menten equation for competitive inhibition kinetics: vo/vi=1+[I]o/(Ki(1+[S]o/Km)), where vo is the uninhibited initial velocity, vi is the initial velocity in the presence of inhibitor at any given inhibitor concentration ([I]o) and [S]o is the substrate concentration used. The resulting data were fitted using linear regression and the resulting slope, 1/(Ki(1+[S]o/Km), was used to calculate the Ki value.

T1 sequence (P26663 1013-1207, looked up, natural form): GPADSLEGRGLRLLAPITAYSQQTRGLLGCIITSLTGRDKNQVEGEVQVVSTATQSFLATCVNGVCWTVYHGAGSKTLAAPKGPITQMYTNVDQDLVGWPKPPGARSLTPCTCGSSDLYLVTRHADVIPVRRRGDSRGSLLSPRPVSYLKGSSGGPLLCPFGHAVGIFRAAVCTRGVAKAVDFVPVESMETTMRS

SMILES	Ki (Ki, Table 3, rating)	other results
COc1ccc(CCNC(=O)[C@H](CC(F)F)NC(=O)[C@@H]2[C@@H]3[C@H](CN2C(=O)[C@@H](NC(=O)N[C@H](CN(C)S(C)(=O)=O)C(C)(C)C)C(C)(C)C)C3(C)C)cc1O [Example 295]	< 0.1 µM	
CN(C[C@@H](NC(=O)N[C@H](C(=O)N1C[C@H]2[C@@H]([C@H]1C(=O)N[C@@H](CC(F)F)C(=O)N[C@@H]1C[C@@H]1c1ccccc1)C2(C)C)C(C)(C)C)C(C)(C)C)S(C)(=O)=O [Example 308]	< 0.1 µM	
CN(C[C@@H](NC(=O)N[C@H](C(=O)N1C[C@H]2[C@@H]([C@H]1C(=O)N[C@@H](CC(F)F)C(=O)NCCc1ccncc1)C2(C)C)C(C)(C)C)C(C)(C)C)S(C)(=O)=O [Example 237]	< 0.1 µM	
CN(C[C@@H](NC(=O)N[C@H](C(=O)N1C[C@H]2[C@@H]([C@H]1C(=O)N[C@@H](CC(F)F)C(=O)N[C@@H]1c3ccccc3C[C@@H]1O)C2(C)C)C(C)(C)C)C(C)(C)C)S(C)(=O)=O [Example 247]	> 0.5 µM	
CN(C[C@@H](NC(=O)N[C@H](C(=O)N1C[C@H]2[C@@H]([C@H]1C(=O)N[C@@H](CC(F)F)C(=O)NCCc1ccccc1)C2(C)C)C(C)(C)C)C(C)(C)C)S(C)(=O)=O [Example 258]	< 0.1 µM	
CC(C)CNC(=O)[C@H](CC(F)F)NC(=O)[C@@H]1[C@@H]2[C@H](CN1C(=O)[C@@H](NC(=O)N[C@H](CN(C)S(C)(=O)=O)C(C)(C)C)C(C)(C)C)C2(C)C [Example 206]	> 0.5 µM	
COc1ccc(CCNC(=O)[C@H](CC(F)F)NC(=O)[C@@H]2[C@@H]3[C@H](CN2C(=O)[C@@H](NC(=O)N[C@H](CN(C)S(C)(=O)=O)C(C)(C)C)C(C)(C)C)C3(C)C)cc1 [Example 271]	< 0.1 µM	
CN(C[C@@H](NC(=O)N[C@H](C(=O)N1C[C@H]2[C@@H](C1C(=O)NC(CC(F)F)C(=O)NCCc1ccc(C(=O)O)cc1)C2(C)C)C(C)(C)C)C(C)(C)C)S(C)(=O)=O (some centres unmarked) [Example 104]		Ki (Ki, Table 1): 0.024 µM
CC(C)[C@H](NC(=O)N[C@H](C(=O)N1C[C@H]2[C@@H]([C@H]1C(=O)NC(CC(F)F)C(=O)NCCc1ccc(C(=O)O)cc1)C2(C)C)C(C)(C)C)C(=O)O (some centres unmarked) [Example 146]		Ki (Ki Rating, Table 2): > 0.5 µM
CN(C[C@@H](NC(=O)N[C@H](C(=O)N1C[C@H]2[C@@H]([C@H]1C(=O)N[C@@H](CC(F)F)C(=O)NCCc1cccc(F)c1)C2(C)C)C(C)(C)C)C(C)(C)C)S(C)(=O)=O [Example 264]	< 0.1 µM	
CC(C)OCCCNC(=O)[C@H](CC(F)F)NC(=O)[C@@H]1[C@@H]2[C@H](CN1C(=O)[C@@H](NC(=O)N[C@H](CN(C)S(C)(=O)=O)C(C)(C)C)C(C)(C)C)C2(C)C [Example 214]	> 0.5 µM	
CC(C)CCNC(=O)[C@H](CC(F)F)NC(=O)[C@@H]1[C@@H]2[C@H](CN1C(=O)[C@@H](NC(=O)N[C@H](CN(C)S(C)(=O)=O)C(C)(C)C)C(C)(C)C)C2(C)C [Example 208]	> 0.5 µM	
CN(C[C@@H](NC(=O)N[C@H](C(=O)N1C[C@H]2[C@@H]([C@H]1C(=O)N[C@@H](CC(F)F)C(=O)NCCc1cccc(Cl)c1)C2(C)C)C(C)(C)C)C(C)(C)C)S(C)(=O)=O [Example 202]	< 0.1 µM	
CCN(CC)CCNC(=O)[C@H](CC(F)F)NC(=O)[C@@H]1[C@@H]2[C@H](CN1C(=O)[C@@H](NC(=O)N[C@H](CN(C)S(C)(=O)=O)C(C)(C)C)C(C)(C)C)C2(C)C [Example 234]	> 0.5 µM	
CC(NC(=O)[C@H](CC(F)F)NC(=O)[C@@H]1[C@@H]2[C@H](CN1C(=O)[C@@H](NC(=O)N[C@H](CN(C)S(C)(=O)=O)C(C)(C)C)C(C)(C)C)C2(C)C)c1ccccc1 (some centres unmarked) [Example 215]	> 0.5 µM	
CN(C[C@@H](NC(=O)N[C@H](C(=O)N1C[C@H]2[C@@H]([C@H]1C(=O)N[C@@H](CC(F)F)C(=O)NCCc1ccc(-c3ccccc3)cc1)C2(C)C)C(C)(C)C)C(C)(C)C)S(C)(=O)=O [Example 288]	< 0.1 µM	

SMILES	Ki (Ki, Table 3, rating)	other results
CN(C[C@@H](NC(=O)N[C@H](C(=O)N1C[C@H]2[C@@H](C1C(=O)N[C@@H](CC(F)F)C(=O)NCCc1ccc(C(N)=O)cc1)C2(C)C)C(C)(C)C)C(C)(C)C)S(C)(=O)=O (some centres unmarked) [Example 106]		Ki (Ki, Table 1): 0.027 µM
CN(C[C@@H](NC(=O)N[C@H](C(=O)N1C[C@H]2[C@@H]([C@H]1C(=O)N[C@@H](CC(F)F)C(=O)N[C@H]1CCCC[C@H]1OCc1ccccc1)C2(C)C)C(C)(C)C)C(C)(C)C)S(C)(=O)=O [Example 256]	> 0.5 µM	
CC(CCc1ccccc1)NC(=O)[C@H](CC(F)F)NC(=O)[C@@H]1[C@@H]2[C@H](CN1C(=O)[C@@H](NC(=O)N[C@H](CN(C)S(C)(=O)=O)C(C)(C)C)C(C)(C)C)C2(C)C (some centres unmarked) [Example 225]	> 0.5 µM	
COC(=O)c1ccc(CCNC(=O)[C@H](CC(F)F)NC(=O)[C@@H]2[C@@H]3[C@H](CN2C(=O)[C@@H](NC(=O)N[C@H](C(=O)c2ccccc2)C(C)C)C(C)(C)C)C3(C)C)cc1 [Example 134]		Ki (Ki Rating, Table 2): 0.1 to 0.5 µM
CN(C[C@@H](NC(=O)N[C@H](C(=O)N1C[C@H]2[C@@H]([C@H]1C(=O)N[C@@H](CC(F)F)C(=O)NCCc1ccccc1Cl)C2(C)C)C(C)(C)C)C(C)(C)C)S(C)(=O)=O [Example 251]	< 0.1 µM	
COC(=O)c1ccc(CCNC(=O)C(CC(F)F)NC(=O)[C@@H]2[C@@H]3[C@H](CN2C(=O)[C@@H](NC(=O)N[C@H](C(=O)OC(C)(C)C)C(C)C)C(C)(C)C)C3(C)C)cc1 (some centres unmarked) [Example 149]		Ki (Ki Rating, Table 2): > 0.5 µM
CN(C[C@@H](NC(=O)N[C@H](C(=O)N1C[C@H]2[C@@H]([C@H]1C(=O)N[C@@H](CC(F)F)C(=O)N[C@@H]1CCC[C@H]1OCc1ccccc1)C2(C)C)C(C)(C)C)C(C)(C)C)S(C)(=O)=O [Example 254]	> 0.5 µM	
CC(C)[C@@H](CN(C)S(=O)(=O)c1ccccc1)NC(=O)N[C@H](C(=O)N1C[C@H]2[C@@H]([C@H]1C(=O)N[C@@H](CC(F)F)C(=O)NCCc1ccc(C(=O)O)cc1)C2(C)C)C(C)(C)C [Example 112]		Ki (Ki, Table 1): 0.05 µM
COc1cccc(CCNC(=O)[C@H](CC(F)F)NC(=O)[C@@H]2[C@@H]3[C@H](CN2C(=O)[C@@H](NC(=O)N[C@H](CN(C)S(C)(=O)=O)C(C)(C)C)C(C)(C)C)C3(C)C)c1 [Example 270]	< 0.1 µM	
CC(C)[C@H](NC(=O)N[C@H](C(=O)N1C[C@H]2[C@@H]([C@H]1C(=O)N[C@@H](CC(F)F)C(N)=O)C2(C)C)C(C)(C)C)C(=O)OC(C)(C)C [Example 164]		Ki (Ki Rating, Table 2): > 0.5 µM
CN(CCc1ccccc1)C(=O)[C@H](CC(F)F)NC(=O)[C@@H]1[C@@H]2[C@H](CN1C(=O)[C@@H](NC(=O)N[C@H](CN(C)S(C)(=O)=O)C(C)(C)C)C(C)(C)C)C2(C)C [Example 303]	> 0.5 µM	
CN(C[C@@H](NC(=O)N[C@H](C(=O)N1C[C@H]2[C@@H]([C@H]1C(=O)N[C@@H](CC(F)F)C(=O)NCCc1ccc(N)cc1)C2(C)C)C(C)(C)C)C(C)(C)C)S(C)(=O)=O [Example 262]	< 0.1 µM	
CC(C)(C)[C@H](NC(=O)N[C@H](C(=O)N1C[C@H]2[C@@H]([C@H]1C(=O)N[C@@H](CC(F)F)C(=O)NCCc1ccc(C(=O)O)cc1)C2(C)C)C(C)(C)C)C(=O)O [Example 114]		Ki (Ki, Table 1): 0.09 µM
CCOC(=O)N1CCC(NC(=O)[C@H](CC(F)F)NC(=O)[C@@H]2[C@@H]3[C@H](CN2C(=O)[C@@H](NC(=O)N[C@H](CN(C)S(C)(=O)=O)C(C)(C)C)C(C)(C)C)C3(C)C)CC1 [Example 227]	> 0.5 µM	
CC(C)(C)[C@H](NC(=O)NC1(CS(C)(=O)=O)CCCCC1)C(=O)N1C[C@H]2[C@@H](C1C(=O)NC(CC(F)F)C(=O)NCCc1ccc(C(N)=O)cc1)C2(C)C (some centres unmarked) [Example 109]		Ki (Ki, Table 1): 0.038 µM
CN(C[C@@H](NC(=O)N[C@H](C(=O)N1C[C@H]2[C@@H]([C@H]1C(=O)N[C@@H](CC(F)F)C(=O)NCCc1ccc(Cl)c(Cl)c1)C2(C)C)C(C)(C)C)C(C)(C)C)S(C)(=O)=O [Example 285]	< 0.1 µM	
